Measurements from US9790202B2, “Anthranilamide derivatives as pesticides” (priority 2010, dated 2017).
Read-outs that look alike come from different tables or passages of the source.

Assays:
[1] = log P determination by HPLC on reversed-phase columns (C 18), acidic range; type: physicochemical
Procedure: The log P values reported in the table above and in the Preparation Examples were determined in accordance with EEC Directive 79/831 Annex V.A8 by HPLC (High Performance Liquid Chromatography) on reversed-phase columns (C 18), with the following methods:
The LC-MS determination in the acidic range is effected at pH 2.7 using 0.1% aqueous formic acid and acetonitrile (contains 0.1% formic acid) as eluents, linear gradient from 10% acetonitrile to 95% acetonitrile
The calibration was effected with unbranched alkan-2-ones (having 3 to 16 carbon atoms) with known log P values (log P values determined on the basis of the retention times by linear interpolation between two successive alkanones).

[2] = test system: larvae of the mustard beetle (Phaedon cochleariae); assay: Phaedon test (PHAECO spray treatment), Use Example 2; type: in vivo; settings: foliar, 168 h, read-out: efficacy in % (beetle larvae killed)
Procedure: Phaedon Test (PHAECO Spray Treatment)
(§1) Solvent: 78.0 parts by weight of acetone 1.5 parts by weight of dimethylformamide
(§2) Emulsifier: 0.5 part by weight of alkylaryl polyglycol ether
(§3) To produce an appropriate active ingredient formulation, 1 part by weight of active ingredient is mixed with the stated amounts of solvent and emulsifier, and the concentrate is diluted with emulsifier-containing water to the desired concentration.
Leaf discs of Chinese cabbage (Brassica pekinensis) are sprayed with an active ingredient formulation of the desired concentration and, after drying, populated with larvae of the mustard beetle (Phaedon cochleariae).
After 7 days, the efficacy in % is determined 100% means that all beetle larvae have been killed; 0% means that no beetle larvae have been killed.

[3] = test system: caterpillars of the armyworm (Spodoptera frugiperda); assay: Spodoptera frugiperda test (SPODFR spray treatment); type: in vivo; settings: Spodoptera frugiperda, foliar, 168 h, read-out: efficacy in % (caterpillars killed)
Procedure: Spodoptera frugiperda Test (SPODFR Spray Treatment)
as §1, §2, §3
Leaf discs of maize (Zea mays) are sprayed with an active ingredient formulation of the desired concentration and, after drying, populated with caterpillars of the armyworm (Spodoptera frugiperda).
After 7 days, the efficacy in % is determined 100% means that all caterpillars have been killed; 0% means that no caterpillars have been killed.

[4] = test system: Lucilia cuprina 1st instar larvae; assay: Lucilia cuprina test (LUCICU); type: in vivo; settings: 100 ppm, treated horsemeat, after 48 h
Procedure: Lucilia cuprina Test (LUCICU)
Species: Lucilia cuprina 1st larval stage (age: 24 hours)
Solvent: dimethyl sulphoxide
To prepare an appropriate active ingredient formulation, 10 mg of active ingredient are mixed with 0.5 ml of dimethyl sulphoxide and the concentrate is diluted with water to the desired concentration.
Vessels containing 1 cm^3 of horsemeat which had been treated with the active ingredient formulation are populated with about 20 Lucilia cuprina 1st instar larvae.
After 48 h, the kill in % is determined 100% means that all larvae have been killed; 0% means that no larvae have been killed.

[5] = test system: green peach aphid (Myzus persicae); assay: Myzus test (MYZUPE spray treatment); type: in vivo; settings: foliar, 144 h, read-out: efficacy in % (aphids killed)
Procedure: Myzus Test (MYZUPE Spray Treatment)
Solvent: 78 parts by weight of acetone 1.5 parts by weight of dimethylformamide
as §2, §3
Leaf discs of Chinese cabbage (Brassica pekinensis) infested by all stages of the green peach aphid (Myzus persicae) are sprayed with an active ingredient formulation of the desired concentration.
After 6 days, the efficacy in % is determined 100% means that all aphids have been killed; 0% means that no aphids have been killed.

[6] = reversed-phase C18 HPLC column, pH 2.7, HPLC reversed-phase C 18, pH 2.7, 0.1% aqueous formic acid / acetonitrile, read-out: LOGP (HCOOH)
[7] = 100 g/ha, spray on maize leaf discs, after 7 days
[8] = 100 g/ha, spray on Chinese cabbage leaf discs, after 7 days
[9] = 100 g/ha, spray on Chinese cabbage leaf discs, after 6 days

| chromatographic logP [1, 6] | Compound | chromatographic logP ([1]; pH 2.7, LOGP (HCOOH)) | pest or weed control at 100 g/ha ([2]; in Brassica rapa) [%] | pest or weed control at 100 g/ha ([3]; in Zea mays) [%] | pest or weed control at 100 g/ha ([5]; in Brassica rapa) [%] | pest or weed control at 100 g/ha [3, 7] [%] | also measured |
| --- | --- | --- | --- | --- | --- | --- | --- |
| – | COC(=O)c1cc(C)c(NC(=O)c2cc(Cn3nnc(C(F)(F)F)n3)nn2-c2ncccc2Cl)c(C(=O)NC(C)C)c1 [Compound 3] | 3.21 | 100 | 100 | – | – | kill in % (larvae killed) [4]: 100% |
| – | C/C(=N\O)c1cc(C)c(NC(=O)c2cc(Cn3nnc(C(F)(F)F)n3)nn2-c2ncccc2Cl)c(C(=O)NC(C)(C)C)c1 [Compound 7] | 3 | – | 100 | 100 | – | kill in % (larvae killed) [4]: 100% |
| – | CNC(=O)c1cc(C(C)=O)cc(C)c1NC(=O)c1cc(Cn2nnc(C(F)(F)F)n2)nn1-c1ncccc1Cl [Compound 8] | 2.53 | – | 100 | – | – | – |
| – | CC(=O)c1cc(C)c(NC(=O)c2cc(Cn3nnc(C(F)(F)F)n3)nn2-c2ncccc2Cl)c(C(=O)NC(C)C)c1 [Compound 9] | 2.94 | – | 100 | – | – | – |
| – | CC(=O)c1cc(C)c(NC(=O)c2cc(Cn3nnc(C(F)(F)F)n3)nn2-c2ncccc2Cl)c(C(=O)NC2CC2)c1 [Compound 10] | 2.73 | – | 100 | – | – | – |
| – | CC(=O)c1cc(C)c(NC(=O)c2cc(Cn3nnc(C(F)(F)F)n3)nn2-c2ncccc2Cl)c(C(=O)NC(C)C2CC2)c1 (centres unmarked) [Compound 11] | 3.23 | 100 | 100 | – | – | – |
| 3.76 | CC(=O)c1cc(C)c(NC(=O)c2cc(Cn3nnc(C(F)(F)F)n3)nn2-c2ccccc2Cl)c(C(=O)NC(C)(C)C)c1 [Compound 12] | – | – | – | – | 100 | – |
| 3.46 | CC(=O)c1cc(C)c(NC(=O)c2cc(Cn3nnc(C(F)(F)F)n3)nn2-c2ccccc2Cl)c(C(=O)NC(C)C)c1 [Compound 13] | – | – | – | – | 100 | pest or weed control at 100 g/ha [2, 8]: 100% |
| 3.74 | CC(=O)c1cc(C)c(NC(=O)c2cc(Cn3nnc(C(F)(F)F)n3)nn2-c2ccccc2Cl)c(C(=O)NC(C)C2CC2)c1 (centres unmarked) [Compound 14] | – | – | – | – | 100 | – |
| 3.27 | CCNC(=O)c1cc(C(C)=O)cc(C)c1NC(=O)c1cc(Cn2nnc(C(F)(F)F)n2)nn1-c1ccccc1Cl [Compound 16] | – | – | – | – | 100 | – |
| – | CNC(=O)c1cc(C(N)=O)cc(C)c1NC(=O)c1cc(Cn2nnc(C(F)(F)F)n2)nn1-c1ncccc1Cl [Compound 17] | 1.94 | 100 | 100 | 100 | – | – |
| – | Cc1cc(C(N)=O)cc(C(=O)NC(C)(C)C)c1NC(=O)c1cc(Cn2nnc(C(F)(F)F)n2)nn1-c1ncccc1Cl [Compound 18] | 2.5 | 100 | 100 | 90 | – | – |
| – | Cc1cc(C(N)=O)cc(C(=O)NC(C)C)c1NC(=O)c1cc(Cn2nnc(C(F)(F)F)n2)nn1-c1ncccc1Cl [Compound 19] | 2.27 | 100 | 100 | – | – | – |
| – | Cc1cc(C(N)=O)cc(C(=O)NC2CC2)c1NC(=O)c1cc(Cn2nnc(C(F)(F)F)n2)nn1-c1ncccc1Cl [Compound 20] | 2.11 | 83 | 100 | – | – | – |
| – | Cc1cc(C(N)=O)cc(C(N)=O)c1NC(=O)c1cc(Cn2nnc(C(F)(F)F)n2)nn1-c1ncccc1Cl [Compound 21] | 1.83 | 100 | 100 | 80 | – | – |
| – | Cc1cc(C(N)=S)cc(C(=O)NC(C)(C)C)c1NC(=O)c1cc(Cn2nnc(C(F)(F)F)n2)nn1-c1ncccc1Cl [Compound 22] | 2.89 | 100 | 100 | 90 | – | – |

| chromatographic logP [1, 6] | Compound | chromatographic logP ([1]; pH 2.7, LOGP (HCOOH)) | pest or weed control at 100 g/ha ([2]; in Brassica rapa) [%] | pest or weed control at 100 g/ha ([3]; in Zea mays) [%] | pest or weed control at 100 g/ha ([5]; in Brassica rapa) [%] | pest or weed control at 100 g/ha [3, 7] [%] | also measured |
| --- | --- | --- | --- | --- | --- | --- | --- |
| 2.65 | CNC(=O)c1cc(C(N)=S)cc(C)c1NC(=O)c1cc(Cn2nnc(C(F)(F)F)n2)nn1-c1ccccc1Cl [Compound 24] | – | – | – | – | 100 | pest or weed control at 100 g/ha [5, 9]: 90%; pest or weed control at 100 g/ha [2, 8]: 100% |
| – | CNC(=O)c1cc(C(N)=S)cc(C)c1NC(=O)c1cc(Cn2nnc(C(F)(F)C(F)(F)F)n2)nn1-c1ncccc1Cl [Compound 25] | 2.64 | 100 | 100 | 100 | – | – |
| – | Cc1cc(C(N)=S)cc(C(=O)NC(C)(C)C)c1NC(=O)c1cc(Cn2nnc(C(F)(F)C(F)(F)F)n2)nn1-c1ncccc1Cl [Compound 26] | 3.26 | 100 | 100 | 100 | – | – |
| 3.85 | COC(=O)c1cc(C)c(NC(=O)c2cc(Cn3nnc(C(F)(F)C(F)(F)F)n3)nn2-c2ncccc2Cl)c(C(=O)NC(C)(C)C)c1 [Compound 27] | – | – | – | – | 100 | pest or weed control at 100 g/ha [5, 9]: 90%; pest or weed control at 100 g/ha [2, 8]: 100% |
| 4.54 | Cc1cc(C(=O)OCC2CC2)cc(C(=O)NC(C)(C)C)c1NC(=O)c1cc(Cn2nnc(C(F)(F)C(F)(F)F)n2)nn1-c1ncccc1Cl [Compound 28] | – | – | – | – | 100 | – |
| 4.62 | Cc1cc(C(=O)OCC2CCC2)cc(C(=O)NC(C)(C)C)c1NC(=O)c1cc(Cn2nnc(C(F)(F)F)n2)nn1-c1ncccc1Cl [Compound 29] | – | – | – | – | 100 | – |
| 3.28 | CNC(=O)c1cc(C(=O)OC)cc(C)c1NC(=O)c1cc(Cn2nnc(C(F)(F)F)n2)nn1-c1ccccc1Cl [Compound 30] | – | – | – | – | 100 | – |
| 4.37 | Cc1cc(C(=O)OC2CCC2)cc(C(=O)NC(C)(C)C)c1NC(=O)c1cc(Cn2nnc(C(F)(F)F)n2)nn1-c1ncccc1Cl [Compound 31] | – | – | – | – | – | – |
| – | Cc1cc(C2OCCO2)cc(C(=O)NC(C)(C)C)c1NC(=O)c1cc(Cn2nnc(C(F)(F)F)n2)nn1-c1ncccc1Cl [Compound 33] | 3.22 | – | 100 | 100 | – | – |
| – | CNC(=O)c1cc(-n2ccc(C(F)(F)F)n2)cc(C)c1NC(=O)c1cc(Cn2nnc(C(F)(F)F)n2)nn1-c1ncccc1Cl [Compound 34] | 3.48 | 100 | 100 | – | – | – |
| 3.86 | CNC(=O)c1cc(-n2ccc(C(F)(F)F)n2)cc(C)c1NC(=O)c1cc(Cn2nnc(C(F)(F)C(F)(F)F)n2)nn1-c1ncccc1Cl [Compound 35] | – | – | – | – | 100 | pest or weed control at 100 g/ha [2, 8]: 100% |
| – | CNC(=O)c1cc(-n2cncn2)cc(C)c1NC(=O)c1cc(Cn2nnc(C(F)(F)F)n2)nn1-c1ncccc1Cl [Compound 36] | 2.25 | 100 | 100 | 100 | – | – |
| – | CNC(=O)c1cc(-n2cncn2)cc(C)c1NC(=O)c1cc(Cn2nnc(C(F)(F)C(F)(F)F)n2)nn1-c1ncccc1Cl [Compound 37] | – | 100 | 100 | 80 | – | – |
| – | Cc1cc(C2OCCCO2)cc(C(=O)NC(C)(C)C)c1NC(=O)c1cc(Cn2nnc(C(F)(F)F)n2)nn1-c1ncccc1Cl [Compound 38] | 3.37 | – | 100 | – | – | – |
| 4.07 | Cc1cc(C2OCC(C)(C)CO2)cc(C(=O)NC(C)(C)C)c1NC(=O)c1cc(Cn2nnc(C(F)(F)F)n2)nn1-c1ncccc1Cl [Compound 39] | – | – | – | – | 100 | – |
| – | COC(=O)c1cc(C)c(N)c(C(=O)NC(C)(C)C)c1 [Example No. B, methyl 4-amino-3-(tert-butylcarbamoyl)-5-methylbenzoate] | – | – | – | – | – | chromatographic logP ([1]; reversed-phase C18 HPLC column, pH 2.7, Preparation Example, HPLC reversed-phase C 18, read-out: log P): 2.48 |
